Values quoted from earlier work, collected in US20230035823A1, “ANTIHISTAMINE AND ANTI-MICROBIAL NASAL SOLUTIONS AND RELATED METHODS” (Xlear, Inc., priority 2021, published 2023).

Key:
[1] = regular consumption
[2] = in vivo
[3] = test system: Streptococcus pneumonia; conditions: in vitro, during logarithmic growth phase

## OC[C@@H](O)[C@H](O)[C@@H](O)CO [Xylitol, xylitol]
[1]
  incidence of dental caries: reduce the incidence of dental caries
[2]
  moisturizing nasal passages: very effective
[3]
  growth of Streptococcus pneumonia: inhibit the growth
